In ChEMBL document CHEMBL6087456 (J Med Chem, 2025):
≈ marks a conversion by molar mass, not a printed value. Calls of active or inactive are those of the source. The rule behind the calls is not given here.

What was measured:
[1] = biological target: Prostaglandin G/H synthase 1 (Homo sapiens) (UniProt P23219); assay: Inhibition of COX1 (unknown origin) at 10 uM relative to control
[2] = system: Plasmodium falciparum; assay: Prevention of terminal maturation of schizonts in humanized SCID mouse model infected with erythrocyte asexual stage Plasmodium falciparum 3D7 0087/N9 at 1 to 30 mg/kg administered once daily for 6 days; type: functional, organism-based; settings: dose 1-30 mg/kg, time 6.0 day
[3] = biological target: T1, Cytochrome P450 2B6 (Homo sapiens, UniProt P20813); assay: Inhibition of CYP2B6 in human liver microsomes; type: ADME, Microsome
T1 sequence (P20813 whole entry): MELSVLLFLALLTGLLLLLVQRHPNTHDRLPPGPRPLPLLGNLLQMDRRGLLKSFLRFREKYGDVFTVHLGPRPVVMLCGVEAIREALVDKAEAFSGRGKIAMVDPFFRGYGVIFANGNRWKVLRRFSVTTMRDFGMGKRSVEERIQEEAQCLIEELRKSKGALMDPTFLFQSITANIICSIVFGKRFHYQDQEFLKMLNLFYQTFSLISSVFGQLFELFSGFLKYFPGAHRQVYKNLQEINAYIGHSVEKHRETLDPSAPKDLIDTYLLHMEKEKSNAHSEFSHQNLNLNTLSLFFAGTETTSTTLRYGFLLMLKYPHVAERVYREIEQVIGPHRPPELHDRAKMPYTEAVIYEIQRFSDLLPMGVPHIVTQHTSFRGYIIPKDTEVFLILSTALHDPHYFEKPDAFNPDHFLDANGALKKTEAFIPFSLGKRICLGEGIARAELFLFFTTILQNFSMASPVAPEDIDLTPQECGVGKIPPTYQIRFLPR

[4] = Toxicity in humanized SCID mouse model infected with erythrocyte asexual stage Plasmodium falciparum 3D7 0087/N9 assessed as drug tolerance at 1 to 30 mg/kg administered once daily for 6 days; type: organism-based; settings: in vivo, dose 1-30 mg/kg, time 6 day
[5] = biological target: Dihydroorotate dehydrogenase (quinone), mitochondrial (Homo sapiens, UniProt Q02127); assay: Inhibition of C-terminal His6-tagged recombinant human DHODH (29 to 395 residues) N-terminally truncated soluble domain extracted from Escherichia coli phage resistant BL21-DE3 using CoQD/DHA/DCIP as substrates
[6] = Kinetic solubility of compound at pH 6.5 measured after 30 mins by nephelometry; type: physicochemical; settings: buffer, pH 6.5, read-out: Kinetic_solubility
[7] = biological target: Cytochrome P450 2D6 (Homo sapiens, UniProt P10635); assay: Time-dependent inhibition of CYP2D6 in human liver microsomes; type: ADME, Microsome
[8] = Plasma protein binding in human measured for 6 hrs by rapid equilibrium dialysis; type: ADME, cell-free
[9] = biological target: T2, Dihydroorotate dehydrogenase (quinone), mitochondrial (Plasmodium falciparum (isolate 3D7), UniProt Q08210); assay: Inhibition of N-terminal His6-tagged recombinant Plasmodium falciparum DHODH (158 to 569 residues) N-terminally truncated soluble domain extracted from Escherichia coli phage resistant BL21-DE3 using CoQD/DHA/DCIP as substrates
T2 sequence (Q08210 whole entry): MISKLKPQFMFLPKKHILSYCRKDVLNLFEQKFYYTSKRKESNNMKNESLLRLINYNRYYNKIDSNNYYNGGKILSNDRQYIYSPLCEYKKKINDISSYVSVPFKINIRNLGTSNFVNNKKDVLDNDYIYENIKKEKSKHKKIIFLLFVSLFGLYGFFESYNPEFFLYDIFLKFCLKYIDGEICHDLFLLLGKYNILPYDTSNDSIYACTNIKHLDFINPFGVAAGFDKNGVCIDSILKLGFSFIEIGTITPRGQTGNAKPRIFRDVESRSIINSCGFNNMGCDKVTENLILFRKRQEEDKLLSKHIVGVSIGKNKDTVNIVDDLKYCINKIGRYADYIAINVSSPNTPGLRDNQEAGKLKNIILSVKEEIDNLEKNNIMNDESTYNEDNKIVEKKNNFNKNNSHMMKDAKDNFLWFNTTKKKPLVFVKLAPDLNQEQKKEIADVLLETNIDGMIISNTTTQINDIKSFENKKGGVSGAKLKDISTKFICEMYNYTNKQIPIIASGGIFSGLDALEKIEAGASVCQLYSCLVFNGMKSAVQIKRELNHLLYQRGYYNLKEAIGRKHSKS

[10] = system: Plasmodium falciparum; assay: Antiparasitic activity against Plasmodium falciparum 3D7 assessed as lag time before killing at 10 times EC50 pretreated for 120 hrs followed by compound removal and replacement of media without compound measured after 28 days by cell killing assay; type: functional
[11] = biological target: Cytochrome P450 3A4 (Homo sapiens, UniProt P08684); assay: Inhibition of CYP3A4 in human liver microsomes; type: ADME, Microsome
[12] = system: Plasmodium falciparum; assay: Prevention of pyknosis of rings in humanized SCID mouse model infected with erythrocyte asexual stage Plasmodium falciparum 3D7 0087/N9 at 1 to 30 mg/kg administered once daily for 6 days measured after 96 to […] post-dose; type: functional, organism-based; settings: dose 1-30 mg/kg, time 6.0 day
[13] = system: Plasmodium falciparum; assay: Antimalarial activity against erythrocyte asexual stage Plasmodium falciparum 3D7 0087/N9 infected in humanized SCID mouse model assessed as elimination of trophozoites at second life cycle at 1 to 30 mg/kg administered once daily measured for 48 to 96 hrs; type: functional, organism-based; settings: dose 1-30 mg/kg, time lower […], time upper […]
[14] = biological target: Voltage-gated inwardly rectifying potassium channel KCNH2 (Homo sapiens, UniProt Q12809); assay: Inhibition of hERG expressed in CHO cells by whole-cell patch-clamp assay; type: toxicity, cell-based
[15] = Cytotoxicity against human HepG2 cells by Cell Titer Glo assay; type: toxicity, cell-based
[16] = system: Plasmodium falciparum; assay: Antimalarial activity against erythrocyte asexual stage Plasmodium falciparum 3D7 0087/N9 infected in humanized SCID mouse model at 1 to 30 mg/kg administered once daily for 6 days measured on day 9; type: functional, organism-based; settings: dose 1-30 mg/kg, time 6.0 day
[17] = Metabolic stability in human liver microsomes assessed as intrinsic clearance at 0.5 uM incubated for 60 mins in presence of NADPH by tandem quadrupole-Time of Flight MS; type: ADME, Microsome; settings: 1 h
[18] = biological target: T1, Cytochrome P450 2B6; assay: Time-dependent inhibition of CYP2B6 in human liver microsomes; type: ADME, Microsome
[19] = Drug excretion in Sprague-Dawley rat urine at 1 mg/kg, iv; type: ADME, organism-based; settings: read-out: Drug excretion
[20] = system: Plasmodium falciparum; assay: Antimalarial activity against erythrocyte asexual stage Plasmodium falciparum 3D7 0087/N9 infected in humanized SCID mouse model assessed as inhibition of maturation of trophozoites to schizonts at first life cycle at 1 to 30 mg/kg administered once daily measured after 48 hrs; type: functional, organism-based; settings: dose 1-30 mg/kg
[21] = biological target: Albumin (Homo sapiens, UniProt P02768); assay: Protein binding to albumin (unknown origin) in ALBUMAX medium; type: ADME; settings: read-out: PB (converted)
[22] = Apparent half life in humanized SCID mouse model at 30 mg/kg, po; type: ADME, organism-based; settings: in vivo, read-out: t1/2(app) (converted)
[23] = Protein binding in human hepatocytes; type: ADME, cell-based, Hepatocyte; settings: read-out: PB (converted)
[24] = Plasma protein binding in rat measured for 6 hrs by rapid equilibrium dialysis; type: ADME, cell-free
[25] = Permeability across apical to basal side in human Caco-2 cells; type: ADME, cell-based
[26] = system: Plasmodium falciparum; assay: Prevention of re-infection of new erythrocytes in humanized SCID mouse model infected with erythrocyte asexual stage Plasmodium falciparum 3D7 0087/N9 at 1 to 30 mg/kg administered once daily for 6 days; type: functional, organism-based; settings: dose 1-30 mg/kg, time 6.0 day

Cytochrome P450 2D6, sequence (P10635 whole entry): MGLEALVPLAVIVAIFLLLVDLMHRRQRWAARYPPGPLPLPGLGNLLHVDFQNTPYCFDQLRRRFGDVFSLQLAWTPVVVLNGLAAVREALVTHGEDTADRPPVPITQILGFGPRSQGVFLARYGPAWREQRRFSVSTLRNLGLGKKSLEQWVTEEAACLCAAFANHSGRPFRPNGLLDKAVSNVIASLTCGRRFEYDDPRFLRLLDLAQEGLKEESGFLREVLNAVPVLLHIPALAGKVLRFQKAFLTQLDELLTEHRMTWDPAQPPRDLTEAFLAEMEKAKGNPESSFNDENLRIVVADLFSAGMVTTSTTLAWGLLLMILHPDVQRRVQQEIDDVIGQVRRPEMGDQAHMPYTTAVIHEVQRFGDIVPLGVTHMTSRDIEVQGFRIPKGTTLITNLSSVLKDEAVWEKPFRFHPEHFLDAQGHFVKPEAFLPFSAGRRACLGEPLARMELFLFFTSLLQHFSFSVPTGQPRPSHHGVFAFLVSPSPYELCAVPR
Voltage-gated inwardly rectifying potassium channel KCNH2, sequence (Q12809 whole entry): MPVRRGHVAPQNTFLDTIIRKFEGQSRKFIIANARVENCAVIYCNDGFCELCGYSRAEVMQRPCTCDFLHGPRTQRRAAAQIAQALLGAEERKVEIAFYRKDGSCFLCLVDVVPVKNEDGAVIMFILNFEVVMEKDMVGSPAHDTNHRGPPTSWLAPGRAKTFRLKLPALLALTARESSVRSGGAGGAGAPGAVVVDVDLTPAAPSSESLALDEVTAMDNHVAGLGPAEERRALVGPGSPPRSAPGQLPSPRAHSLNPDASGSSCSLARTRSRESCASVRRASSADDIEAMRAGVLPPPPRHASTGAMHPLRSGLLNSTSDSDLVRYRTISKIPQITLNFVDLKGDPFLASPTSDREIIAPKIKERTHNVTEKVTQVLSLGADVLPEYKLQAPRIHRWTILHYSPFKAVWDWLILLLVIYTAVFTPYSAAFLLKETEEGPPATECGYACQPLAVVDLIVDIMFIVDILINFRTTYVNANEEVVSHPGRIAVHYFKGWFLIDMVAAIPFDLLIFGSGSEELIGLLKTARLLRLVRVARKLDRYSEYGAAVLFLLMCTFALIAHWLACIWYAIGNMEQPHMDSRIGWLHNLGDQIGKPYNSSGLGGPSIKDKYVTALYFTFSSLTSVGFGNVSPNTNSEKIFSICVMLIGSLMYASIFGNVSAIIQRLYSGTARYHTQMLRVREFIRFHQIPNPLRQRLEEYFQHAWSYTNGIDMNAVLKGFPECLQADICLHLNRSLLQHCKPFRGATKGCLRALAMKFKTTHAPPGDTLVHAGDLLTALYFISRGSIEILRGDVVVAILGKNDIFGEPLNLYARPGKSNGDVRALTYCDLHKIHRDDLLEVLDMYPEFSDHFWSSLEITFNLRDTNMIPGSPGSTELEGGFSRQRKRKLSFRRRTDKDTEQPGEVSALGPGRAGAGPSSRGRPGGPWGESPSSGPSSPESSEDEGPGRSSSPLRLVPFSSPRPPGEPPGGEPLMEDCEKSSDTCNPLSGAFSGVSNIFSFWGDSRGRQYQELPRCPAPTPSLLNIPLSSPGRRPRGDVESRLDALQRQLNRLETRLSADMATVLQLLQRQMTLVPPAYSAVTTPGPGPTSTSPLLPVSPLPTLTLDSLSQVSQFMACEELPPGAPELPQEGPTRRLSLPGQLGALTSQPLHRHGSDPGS
Prostaglandin G/H synthase 1 (Homo sapiens), sequence (P23219 whole entry): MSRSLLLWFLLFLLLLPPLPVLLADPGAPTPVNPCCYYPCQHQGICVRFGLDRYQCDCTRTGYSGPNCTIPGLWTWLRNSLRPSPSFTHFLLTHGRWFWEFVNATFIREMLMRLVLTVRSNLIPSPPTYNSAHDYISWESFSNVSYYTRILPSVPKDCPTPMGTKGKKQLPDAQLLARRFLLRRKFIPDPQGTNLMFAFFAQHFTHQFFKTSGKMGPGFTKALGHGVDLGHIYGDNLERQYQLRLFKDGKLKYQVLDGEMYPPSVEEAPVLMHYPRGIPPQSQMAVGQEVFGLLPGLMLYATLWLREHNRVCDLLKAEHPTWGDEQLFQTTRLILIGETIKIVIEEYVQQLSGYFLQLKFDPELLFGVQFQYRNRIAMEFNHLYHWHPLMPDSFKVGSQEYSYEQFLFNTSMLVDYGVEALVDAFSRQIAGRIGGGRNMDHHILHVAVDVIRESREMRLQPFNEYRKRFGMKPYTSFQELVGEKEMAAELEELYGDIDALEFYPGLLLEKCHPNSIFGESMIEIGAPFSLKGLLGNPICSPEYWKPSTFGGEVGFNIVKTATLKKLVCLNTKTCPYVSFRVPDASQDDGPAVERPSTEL
Cytochrome P450 3A4, sequence (P08684 whole entry): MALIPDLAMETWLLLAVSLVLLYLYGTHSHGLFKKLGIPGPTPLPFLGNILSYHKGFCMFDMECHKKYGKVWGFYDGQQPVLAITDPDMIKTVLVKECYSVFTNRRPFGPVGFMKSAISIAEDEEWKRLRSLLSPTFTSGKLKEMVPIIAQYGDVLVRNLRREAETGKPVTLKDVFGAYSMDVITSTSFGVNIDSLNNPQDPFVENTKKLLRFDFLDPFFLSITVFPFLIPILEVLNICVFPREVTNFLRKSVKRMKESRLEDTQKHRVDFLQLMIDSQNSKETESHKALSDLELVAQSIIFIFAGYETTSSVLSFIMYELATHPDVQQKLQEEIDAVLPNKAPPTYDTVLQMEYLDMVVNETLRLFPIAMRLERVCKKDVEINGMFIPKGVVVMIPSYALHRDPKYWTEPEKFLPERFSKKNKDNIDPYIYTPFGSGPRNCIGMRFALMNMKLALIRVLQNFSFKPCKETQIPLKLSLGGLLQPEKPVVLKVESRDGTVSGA
Albumin, sequence (P02768 whole entry): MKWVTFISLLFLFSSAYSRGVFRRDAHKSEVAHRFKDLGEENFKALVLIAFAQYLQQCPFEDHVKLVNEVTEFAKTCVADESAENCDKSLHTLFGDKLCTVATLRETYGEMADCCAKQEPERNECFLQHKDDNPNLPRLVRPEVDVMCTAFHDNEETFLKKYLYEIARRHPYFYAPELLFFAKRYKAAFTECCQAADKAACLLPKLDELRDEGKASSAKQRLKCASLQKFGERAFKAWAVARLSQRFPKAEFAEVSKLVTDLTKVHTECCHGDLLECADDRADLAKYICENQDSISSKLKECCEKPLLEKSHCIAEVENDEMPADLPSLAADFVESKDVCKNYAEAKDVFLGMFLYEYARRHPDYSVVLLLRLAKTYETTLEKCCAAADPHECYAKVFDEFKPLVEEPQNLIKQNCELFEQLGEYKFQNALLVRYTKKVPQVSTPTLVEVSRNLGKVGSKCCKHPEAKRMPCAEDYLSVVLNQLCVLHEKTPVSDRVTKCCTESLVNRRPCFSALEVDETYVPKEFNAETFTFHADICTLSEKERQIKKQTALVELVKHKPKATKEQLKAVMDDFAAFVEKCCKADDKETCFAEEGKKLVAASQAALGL
Dihydroorotate dehydrogenase (quinone), mitochondrial (Homo sapiens, UniProt Q02127), sequence (Q02127 whole entry, the tested form may be a part): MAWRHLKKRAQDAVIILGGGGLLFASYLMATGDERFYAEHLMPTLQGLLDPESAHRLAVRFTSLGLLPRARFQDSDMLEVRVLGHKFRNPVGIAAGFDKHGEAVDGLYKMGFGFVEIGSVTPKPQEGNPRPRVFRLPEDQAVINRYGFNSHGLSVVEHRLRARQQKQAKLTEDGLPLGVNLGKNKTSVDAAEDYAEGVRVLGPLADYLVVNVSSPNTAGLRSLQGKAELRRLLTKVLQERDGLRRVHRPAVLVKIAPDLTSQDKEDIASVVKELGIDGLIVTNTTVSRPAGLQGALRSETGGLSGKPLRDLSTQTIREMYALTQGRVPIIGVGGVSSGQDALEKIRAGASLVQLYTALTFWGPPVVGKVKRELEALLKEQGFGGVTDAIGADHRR

Cn1nc2c(=O)n(C3CC3)cnc2c1[C@](O)(c1cnc(C(F)(F)F)c(Cl)c1)C(F)(F)F
inhibition [1]: 50%
Activity [2]: inactive
IC50 [3]: > 20 µM
Activity [4]: Non-toxic
IC50 [5]: > 30 µM
solubility kinetic at 0.5 h [6]: 80 µM (≈ 37.4 µg/mL)
TDI [7]: Not_active
PPB [8]: 98.9%
IC50 [9]: 0.015 µM
Time [10]: ~26 h
IC50 [11]: > 20 µM
Activity [12]: inactive
Activity [13]: Active
EC50 [14]: ~50 µM
CC50 [15]: > 20 µM
Activity [16]: Active
intrinsic clearance (CLint) [17]: < 3 µL/min/mg
TDI [18]: Not_active
dose excreted [19]: < 1%
Activity [20]: Active
fraction unbound [21]: 0.514
half-life [22]: 7.8 h
fraction unbound [23]: 0.535
PPB [24]: 97.2%
permeability [25]: Permeable
Activity [26]: inactive
